Source: US20060035964A1, “Hypoglycemic agent, liver protecting agent and anticancer agent containing lignans originating in hongdoushan” (priority 2002, published 2006)
≈ marks a conversion by molar mass, not a printed value.

Columns and labels:
[1] = tested on: murine colon 26-L5 carcinoma cells; assay: Antiproliferative activity against cultured cancer cells (MTT), colon 26-L5; format: cell-based; conditions: for IC50: Mus musculus, average of 4 wells
Description: (§1) Compounds of lignans and hongdoushan fractions were tested for their antiproliferative activity against human HT-1080 fibrosarcoma cells and murine colon 26-L5 carcinoma cells. Human HT-1080 fibrosarcoma cells were cultured in the EMEM medium supplemented with 10% FCS (heat-inactivated fetal calf serum) and 0.1% sodium bicarbonate, and 2 mM glutamine. On the other hand, murine colon 26-L5 carcinoma cells were cultured in the RPMI medium containing the same supplements as in the EMEM medium. Cell viability was determined by means of MTT(3-(4,5-dimethylthiazol-2-yl)-2,5-[…] bromide).
(§2) The cells were cultured in a 96-well plate, which was supplemented with a cell suspension medium solution. In this case, each well had approximately 2,000 cells in 100 μL. The cells grew exponentially during the cultivation.
(§3) Twenty four hours later, when the cells adhered to the plate, the medium solution was removed, and then the cells were treated with a test compound medium solution (100 μL) at various concentrations (100 μg/mL, 50 μg/mL, 10 μg/mL, 5 μg/mL, and 1 μg/mL). The cells were cultured at 37° C. under 5% CO2. In this case, the test compounds were first dissolved in DMSO and then diluted in the medium. The concentration of DMSO was adjusted to be finally below 0.25%.
(§4) Next, the medium solution was removed, and the dissolved MTT (100 μL) was added to the medium. After three-hour incubation of the cells, the amount of the formazan formed was measured spectrophotometrically at 550 nm with a plate reader HTS-7000 (manufactured by Perkin Elmer).

[2] = tested on: human HT-1080 fibrosarcoma cells; assay: Antiproliferative activity against cultured cancer cells (MTT), HT-1080; format: cell-based; conditions: for IC50: Homo sapiens, HT-1080, average of 4 wells
Description: as §1, §2, §3, §4

[3] = DPPH free radical scavenging activity; conditions: DPPH 60 μM ethanol solution, 30 minutes room temperature, absorbance 520 nm
Description: 500 μL of each test compound dissolved in ethanol or aqueous solution was mixed with 500 μL of DPPH (1,1-diphenyl 1-2-picrylhydrazyl) ethanol solution (concentration: 60 μM). The mixtures were left at room temperature for 30 minutes, and then their absorbance was measured at 520 nm. The measurements were carried out for each test compound at different concentrations.

[4] = tested on: D-GalN/LPS-induced hepatic damage in mice; assay: D-GalN/LPS-induced hepatic damage model; format: in vivo, mouse; conditions: for GOT level in blood serum / GPT level in blood serum / TNF-α level in blood serum: ddY mice, subcutaneous 10 mg/kg and 50 mg/kg; for GOT level in blood serum / GPT level in blood serum: 12 h and 1 h before D-GalN/LPS, measured 8 hours after injection; for TNF-α level in blood serum: measured 90 minutes after D-GalN/LPS injection, ELISA; for Histopathological observation of hepatic cells (apoptosis): 8 hours after the injection of D-GalN/LPS, compared with control group
Description: Evaluation by D-galactosamine (hereinafter called “D-GalN”)/Lipopolysaccharide (hereinafter called “LPS”)-induced hepatic damage model (J. Wang et al., Biochem. Pharm., 39, 267 (1990), A. Wendel et al., Biochem. Pharm., 35, 2115 (1986))
Male mice of ddY strains (age: 6 weeks) kept fast for 12 hours, and then hepatic damage was induced in the mice by injecting D-GalN (700 mg/kg)/LPS (10 μg/kg) into their abdominal cavity. Test compounds were given subcutaneously to the mice 2 times: 12 hours and 1 hour before the injection of D-GalN/LPS. They were arranged into 2 groups which were given test compounds: a group in a dose of 50 mg/kg (weight of rat), and a group in a dose of 10 mg/kg (weight of rat). There were also a control group which was given normal saline solution and a group which was given silymarin, a known hepatoprotective agent, (subcutaneous administration in a dose of 100 mg/kg) for comparison of medicinal benefits.
Tumor necrosis factor alpha (hereinafter called “TNF-α”) level in the blood was measured 90 minutes after the injection of D-GalN/LPS. Furthermore, levels of GPT (glutamic-pyruvic transaminase) and GOT (glutamic oxaloacetic transaminase) in the blood were measured 8 hours after the injection.
TNF-α level was measured by means of the ELISA method using an anti-mouse TNF-α antibody (manufactured by Endogen, Inc., USA), and levels of GPT and GOT were measured by using a Transaminase CII-Test kit (manufactured by Wako Pure Chemical Industries, Ltd.).
The hepatic damage mechanism induced in this damage model is thought to have high correlativity with clinical results as a model of immunological hepatic damage outbreak because of a series of process such as activation of cells involved in immunity, infiltration into hepatic tissues, secretion of cytokine and autocoid such as leukotriene D4 and TNF-α, and apoptosis of hepatic cells.

[5] = tested on: primary cultured mouse hepatocytes; assay: Inhibitory activity on TNF-α-induced cell death in primary cultured mouse hepatocytes (MTT); format: cell-based; conditions: D-galactosamine 0.5 mM + TNF-α 100 ng/mL; compounds at 200, 100, 50 and 10 μM; 18 hours; compared with Control
Description: Hepatic parenchymal cells were separated from the lives of male mice of ddY strains by means of a collagenase recirculation method. The separated hepatic parenchymal cells were suspended in the William's E culture medium, which was supplemented with 10% calf blood serum, 100 IU/mL penicillin G, 100 µg/mL streptomycin, 100 μM dexamethasone, and 50 ng/mL insulin, and incubated in a 96-well plastic plate (1.5×10^4 cells/well). The culture medium was replaced with a fresh culture medium containing D-galactosamine (0.5 mM) and lignans after 2-hour pre-incubation. TNF-α (100 ng/mL) was added to each well 30 minutes later. The hepatocytes viability was assessed 18 hours later by means of MTT(3-(4,5-dimethylthiazol-2-yl)-2,5-[…] bromide) colorimetric reaction.
The vertical axis of the graph represents cell viability in percentage. The bar of Normal is cell viability in the TNF-α-untreated culture medium. The bar of Control is cell viability in the test compound-untreated culture medium.
TAX, HYL, SIL, and ITX were treated at 200 μM, 100 μM, 50 μM, and 10 μM in the culture medium. Cell viability of each item is shown in the bar graphs.

[6] = tested on: diabetic rats induced by injecting STZ; assay: Decrease activity in blood glucose level in STZ-induced diabetic rats; format: in vivo, rat; conditions: STZ diabetic Wistar rats; for Reduction of blood glucose level: 10 mg/kg into abdominal cavity 5 times at 12 h intervals (positive control: tolbutamide 200 mg/kg + buformin 1 mg/kg)
Description: Activities of compounds of lignans and hongdoushan fractions in decreasing blood glucose level were assessed by using rats.
Blood serums were obtained after the blood cell separation of the whole blood samples collected from the rats. Measurement of the blood glucose level was carried out by using the blood serum, a Glucose CII-TEST WAKO (manufactured by Wako Pure Chemical Industries, Ltd.) as a reagent and a UV-160A (manufactured by Shimadzu Corporation) as an instrument for absorbance measurement.
Male rats of Wistar strains (age: 5-6 weeks, weight: 180-200 g) kept fast for 16 hours. Then, citrate buffer solution (pH 4.2) of streptozocin (hereinafter called “STZ”) was injected into the rats' abdominal cavity in a dose of 55 mg/kg (weight of rat). Blood samples were taken from the tail vein of the rats 5 days after the injection, to measure blood glucose level. Rats with blood glucose level higher than 250 mg/dL were considered to be diabetic and were used for the tests.
Compounds or fractions were injected into the abdominal cavity of the diabetic rats in a dose of 10 mg/kg (weight of rat) 5 times at intervals of 12 hours. Blood samples were taken from the tail veins of the rats to measure the blood glucose level. Averages and standard deviations of measured values were calculated for groups, each of which had 4 rats. The groups included a negative control group, which was given normal saline solution, and a positive control group of said diabetic rats, which were given a mixture of tolbutamide in a dose of 200 mg/kg (weight of rat) and buformin in a dose of 1 mg/kg (weight of rat) through their abdominal cavity.

| Structure (SMILES) | IC50 [1] [µg/mL] | IC50 [2] [µg/mL] | ED50 DPPH free radical scavenging [3] [µg/mL] | GOT level in blood serum [4] | GPT level in blood serum [4] | TNF-α level in blood serum [4] | Cell viability [5] | Antiproliferative activity against Colon 26-L5 (in words) [1] | Histopathological observation of hepatic cells (apoptosis) [4] | Antiproliferative activity against HT-1080 (in words) [2] | Reduction of blood glucose level [6] [%] | Blood glucose level After administration ([6]; after 10 mg/kg into abdominal cavity 5 times at 12 h intervals (positive control: tolbutamide 200 mg/kg + buformin 1 mg/kg), mean ± SD) [mg/dL] | Blood glucose level Before administration ([6]; before administration, mean ± SD, 4 rats) [mg/dL] |
| --- | --- | --- | --- | --- | --- | --- | --- | --- | --- | --- | --- | --- | --- |
| O=c1[nH]cc(F)c(=O)[nH]1 [5-Fluorouracil, reference compound] | 0.07 (≈ 0.538 µM) | 0.29 (≈ 2.23 µM) | – | – | – | – | – | – | – | – | – | – | – |
| O=C(O)/C=C/c1ccc(O)c(O)c1 [Caffeic Acid] | – | – | 5.41 (≈ 30 µM) | – | – | – | – | – | – | – | – | – | – |
| COc1cc([C@H]2OC[C@H]([C@@H](O)c3ccc(O)c(OC)c3)[C@@H]2CO)ccc1O [HYL, (7′R)-7′-Hydroxylariciresinol] | > 100 | > 100 | – | inhibit the increase | inhibit the increase | inhibit the increase | results similar to that of TAX | – | – | – | – | – | – |
| COc1cc2c(cc1O)[C@H](c1ccc(O)c(O)c1)[C@@H](CO)[C@H](CO)C2 [ITX, Isotaxiresinol] | 36.5 (≈ 105 µM) | 43.8 (≈ 126 µM) | – | inhibit the increase | inhibit the increase | inhibit the increase | results similar to that of TAX | showed antiproliferative activity | less apoptosis corpuscles in the cells and less concentrated chromatins in the cell nucleuses | showed antiproliferative activity | 23.6 | – | – |
| COc1cc(C[C@@H](CO)[C@H](CO)Cc2ccc(O)c(OC)c2)ccc1O [SIL, Secoisolariciresinol] | 60.2 (≈ 166 µM) | 5.9 (≈ 16.3 µM) | – | inhibit the increase | inhibit the increase | inhibit the increase | results similar to that of TAX | – | less apoptosis corpuscles in the cells and less concentrated chromatins in the cell nucleuses | noticeable antiproliferative activity | 33.4 | – | – |
| COc1cc(C[C@H]2CO[C@H](c3ccc(O)c(O)c3)[C@H]2CO)ccc1O [TAX, Taxiresinol] | 35.2 (≈ 102 µM) | 62.2 (≈ 180 µM) | – | inhibit the increase | inhibit the increase | inhibit the increase | increased cell viability considerably in a dose-dependent manner | showed antiproliferative activity | – | showed antiproliferative activity | 20.9 | 250.2 ± 35.5 | 316.1 ± 19.9 |
